Laboratory results taken from ChEMBL document CHEMBL5154769, “Discovery of the First-in-Class Agonist-Based SOS1 PROTACs Effective in Human Cancer Cells Harboring Various KRAS Mutations” (J Med Chem, 2022).
Active and inactive are the calls of the source. No cut-off for these calls is given here.

Columns and labels:
NCI-H358 = assay: Effect of compound on human NCI-H358 cells assessed as increase in phophorylated ERK level incubated for 24 hr by Western blot analysis; format: functional, cell-based
[1] = biological target: T1, von Hippel-Lindau disease tumor suppressor/Son of sevenless homolog 1 (Homo sapiens, UniProt Q07889+P40337); assay: Protac activity at VHL/SOS1 in human NCI-H358 cells assessed as SOS1 protein degradation at 1 uM incubated for 24 hr by Western blot analysis relative to control; format: cell-based
Target sequence in this assay (P40337 whole entry, looked up): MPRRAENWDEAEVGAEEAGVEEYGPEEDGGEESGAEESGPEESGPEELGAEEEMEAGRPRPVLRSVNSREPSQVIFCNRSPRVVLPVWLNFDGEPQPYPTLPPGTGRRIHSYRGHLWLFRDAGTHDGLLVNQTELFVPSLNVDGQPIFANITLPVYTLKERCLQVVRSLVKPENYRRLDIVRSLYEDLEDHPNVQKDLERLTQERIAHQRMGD
Target sequence in this assay (Q07889 whole entry, looked up): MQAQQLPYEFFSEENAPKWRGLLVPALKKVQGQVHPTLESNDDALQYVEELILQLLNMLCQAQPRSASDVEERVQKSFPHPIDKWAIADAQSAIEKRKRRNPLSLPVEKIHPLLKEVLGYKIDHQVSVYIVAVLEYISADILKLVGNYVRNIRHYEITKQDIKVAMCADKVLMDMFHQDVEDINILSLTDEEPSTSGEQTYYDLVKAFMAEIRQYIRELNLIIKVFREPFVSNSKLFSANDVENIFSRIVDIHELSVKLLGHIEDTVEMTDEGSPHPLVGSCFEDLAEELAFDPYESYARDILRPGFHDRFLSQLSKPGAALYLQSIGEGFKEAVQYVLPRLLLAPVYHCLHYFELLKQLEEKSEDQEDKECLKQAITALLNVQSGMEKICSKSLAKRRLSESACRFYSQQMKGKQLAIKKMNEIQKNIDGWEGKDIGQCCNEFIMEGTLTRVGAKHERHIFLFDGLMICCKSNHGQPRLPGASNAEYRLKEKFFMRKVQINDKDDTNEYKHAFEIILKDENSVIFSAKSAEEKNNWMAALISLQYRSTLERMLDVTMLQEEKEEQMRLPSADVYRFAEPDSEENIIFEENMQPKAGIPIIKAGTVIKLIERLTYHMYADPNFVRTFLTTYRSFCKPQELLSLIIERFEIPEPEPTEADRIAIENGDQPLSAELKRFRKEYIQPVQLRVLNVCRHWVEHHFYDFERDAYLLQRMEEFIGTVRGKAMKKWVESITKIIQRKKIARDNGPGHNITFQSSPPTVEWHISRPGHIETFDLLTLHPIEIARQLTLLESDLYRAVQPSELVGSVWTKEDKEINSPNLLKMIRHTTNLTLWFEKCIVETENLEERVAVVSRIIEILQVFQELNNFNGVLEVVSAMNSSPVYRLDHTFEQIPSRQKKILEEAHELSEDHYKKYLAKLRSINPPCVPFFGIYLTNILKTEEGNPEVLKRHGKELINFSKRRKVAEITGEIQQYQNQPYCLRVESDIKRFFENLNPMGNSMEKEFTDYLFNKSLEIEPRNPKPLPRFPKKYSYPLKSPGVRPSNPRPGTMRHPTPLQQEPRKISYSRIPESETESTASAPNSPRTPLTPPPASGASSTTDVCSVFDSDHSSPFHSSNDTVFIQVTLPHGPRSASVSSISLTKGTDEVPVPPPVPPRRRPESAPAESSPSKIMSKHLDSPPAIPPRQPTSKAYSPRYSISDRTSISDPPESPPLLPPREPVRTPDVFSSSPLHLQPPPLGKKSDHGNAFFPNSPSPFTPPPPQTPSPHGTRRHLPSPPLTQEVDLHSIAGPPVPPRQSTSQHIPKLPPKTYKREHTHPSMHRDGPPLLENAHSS

[2] = biological target: T1, von Hippel-Lindau disease tumor suppressor/Son of sevenless homolog 1; assay: Protac activity at VHL/SOS1 in human NCI-H358 cells assessed as SOS1 protein degradation at 0.1 uM incubated for 24 hr by Western blot analysis relative to control; format: cell-based
Target sequence in this assay (P40337 whole entry, looked up): as the sequence (P40337 whole entry, looked up) above
Target sequence in this assay (Q07889 whole entry, looked up): as the sequence (Q07889 whole entry, looked up) above

[3] = biological target: T1, von Hippel-Lindau disease tumor suppressor/Son of sevenless homolog 1; assay: Protac activity at VHL/SOS1 in human NCI-H358 cells assessed as SOS1 protein degradation incubated for 24 hr by Western blot analysis; format: cell-based
Target sequence in this assay (Q07889 whole entry): as the sequence (Q07889 whole entry, looked up) above
Target sequence in this assay (P40337 whole entry): as the sequence (P40337 whole entry, looked up) above

SMILES | Activity (NCI-H358) | Activity [1] [%] | Activity [2] [%] | DC50 [3] [nM]
Cc1cc(Cn2c(N3CC4(CNC4)C3)nc3c(N4CCN(C)CC4)cc(Cl)cc32)cc(C)c1F | Active | – | – | –
Cc1cc(Cn2c(N3CC4(CNC4)C3)nc3c(N4CCN(CCCCCC(=O)N[C@H](C(=O)N5C[C@H](O)C[C@H]5C(=O)N[C@@H](C)c5ccc(-c6scnc6C)cc5)C(C)(C)C)CC4)cc(Cl)cc32)cc(C)c1F | – | 30.4 | 5.8 | –
Cc1cc(Cn2c(N3CC4(CNC4)C3)nc3c(N4CCN(CC5CCN(CC(=O)N[C@H](C(=O)N6C[C@H](O)C[C@H]6C(=O)N[C@@H](C)c6ccc(-c7scnc7C)cc6)C(C)(C)C)CC5)CC4)cc(Cl)cc32)cc(C)c1F | – | 43.3 | 13 | –
Cc1cc(Cn2c(N3CC4(CNC4)C3)nc3c(N4CCN(CCCCC(=O)NCCCC(=O)N[C@H](C(=O)N5C[C@H](O)C[C@H]5C(=O)N[C@@H](C)c5ccc(-c6scnc6C)cc5)C(C)(C)C)CC4)cc(Cl)cc32)cc(C)c1F | – | 0 | 3.2 | –
Cc1cc(Cn2c(N3CC4(CNC4)C3)nc3c(N4CCN(CCCCCCCCCC(=O)N[C@H](C(=O)N5C[C@H](O)C[C@H]5C(=O)N[C@@H](C)c5ccc(-c6scnc6C)cc5)C(C)(C)C)CC4)cc(Cl)cc32)cc(C)c1F | – | 82 | 38.5 | 182
Cc1cc(Cn2c(N3CC4(CNC4)C3)nc3c(N4CCN(CCCCCCCCCCCC(=O)N[C@H](C(=O)N5C[C@H](O)C[C@H]5C(=O)N[C@@H](C)c5ccc(-c6scnc6C)cc5)C(C)(C)C)CC4)cc(Cl)cc32)cc(C)c1F | – | 49 | 33 | –
Cc1cc(Cn2c(N3CC4(CNC4)C3)nc3c(N4CCN(CCOCCOCCC(=O)N[C@H](C(=O)N5C[C@H](O)C[C@H]5C(=O)N[C@@H](C)c5ccc(-c6scnc6C)cc5)C(C)(C)C)CC4)cc(Cl)cc32)cc(C)c1F | – | 14 | 4.4 | –
Cc1cc(Cn2c(N3CC4(CNC4)C3)nc3c(N4CCN(CC5CCN(CCC(=O)N[C@H](C(=O)N6C[C@H](O)C[C@H]6C(=O)N[C@@H](C)c6ccc(-c7scnc7C)cc6)C(C)(C)C)CC5)CC4)cc(Cl)cc32)cc(C)c1F | – | 9.4 | 18.1 | –
Cc1cc(Cn2c(N3CC4(CNC4)C3)nc3c(N4CCN(CCOCCOCCOCCC(=O)N[C@H](C(=O)N5C[C@H](O)C[C@H]5C(=O)N[C@@H](C)c5ccc(-c6scnc6C)cc5)C(C)(C)C)CC4)cc(Cl)cc32)cc(C)c1F | – | 36.6 | 15.4 | –
Cc1cc(Cn2c(N3CC4(CNC4)C3)nc3c(N4CCN(CCCCCCC(=O)N[C@H](C(=O)N5C[C@H](O)C[C@H]5C(=O)N[C@@H](C)c5ccc(-c6scnc6C)cc5)C(C)(C)C)CC4)cc(Cl)cc32)cc(C)c1F | – | 79.9 | 30.7 | 216
Cc1cc(Cn2c(N3CC4(CNC4)C3)nc3c(N4CCN(CCCC(=O)NCCCC(=O)N[C@H](C(=O)N5C[C@H](O)C[C@H]5C(=O)N[C@@H](C)c5ccc(-c6scnc6C)cc5)C(C)(C)C)CC4)cc(Cl)cc32)cc(C)c1F | – | 12.7 | 8 | –
Cc1cc(Cn2c(N3CC4(CNC4)C3)nc3c(N4CCN(CCCCCCCC(=O)N[C@H](C(=O)N5C[C@H](O)C[C@H]5C(=O)N[C@@H](C)c5ccc(-c6scnc6C)cc5)C(C)(C)C)CC4)cc(Cl)cc32)cc(C)c1F | – | 80.9 | 27.6 | 150
Cc1cc(Cn2c(N3CC4(CNC4)C3)nc3c(N4CCN(CCOCCOCC(=O)N[C@H](C(=O)N5C[C@H](O)C[C@H]5C(=O)N[C@@H](C)c5ccc(-c6scnc6C)cc5)C(C)(C)C)CC4)cc(Cl)cc32)cc(C)c1F | – | 24.4 | 23.3 | –
Cc1cc(Cn2c(N3CC4(CNC4)C3)nc3c(N4CCN(CCCCCCCCC(=O)N[C@H](C(=O)N5C[C@@H](O)C[C@H]5C(=O)N[C@@H](C)c5ccc(-c6scnc6C)cc5)C(C)(C)C)CC4)cc(Cl)cc32)cc(C)c1F | Active | – | – | –
Cc1cc(Cn2c(N3CC4(CNC4)C3)nc3c(N4CCN(CC5CCN(CCCC(=O)N[C@H](C(=O)N6C[C@H](O)C[C@H]6C(=O)N[C@@H](C)c6ccc(-c7scnc7C)cc6)C(C)(C)C)CC5)CC4)cc(Cl)cc32)cc(C)c1F | – | 11.2 | 7 | –
Cc1cc(Cn2c(N3CC4(CNC4)C3)nc3c(N4CCN(CCC(=O)NCCCC(=O)N[C@H](C(=O)N5C[C@H](O)C[C@H]5C(=O)N[C@@H](C)c5ccc(-c6scnc6C)cc5)C(C)(C)C)CC4)cc(Cl)cc32)cc(C)c1F | – | 18.3 | 0 | –
Cc1cc(Cn2c(N3CC4(CNC4)C3)nc3c(N4CCN(CCCCCCCCCCC(=O)N[C@H](C(=O)N5C[C@H](O)C[C@H]5C(=O)N[C@@H](C)c5ccc(-c6scnc6C)cc5)C(C)(C)C)CC4)cc(Cl)cc32)cc(C)c1F | – | 63.2 | 31.7 | –
